From PubChem BioAssay (NCI) come the findings set out here.

Among the test systems are T-47D breast; RPMI-8226 leukemia; OVCAR-4 ovarian; SF-268 CNS; M14 melanoma; TK-10 renal; UO-31 renal; ACHN renal; OVCAR-8 ovarian; MOLT-4 leukemia.
Holding throughout (assay): NCI anticancer screen, dose series, 48 h

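All cell lines were grown in 96-well plates and treated with compound for 48 hours. GI50 is the concentration that inhibits growth by half. The concentration for full growth arrest is given as TGI.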

In the case of `CCN(CC)CCOc1ccc(Nc2ncc3cc(-c4ccc(O)cc4)c(=O)n(C)c3n2)cc1`, the GI50 in the assay with T-47D breast is 12.2 µM; with RPMI-8226 leukemia it was 14.5 µM; in the assay with OVCAR-4 ovarian it was 16.7 µM; in the assay with SF-268 CNS it was 1190 nM; in the assay on M14 melanoma it was 1270 nM; in the assay on TK-10 renal, 3.9 µM. Further, the GI50 in the assay on UO-31 renal is 39.6 nM; with ACHN renal, 61.8 nM; with OVCAR-8 ovarian, 3.72 µM; with MOLT-4 leukemia, 200 nM. For the same compound, the TGI amounted to 31.8 µM with T-47D breast; 44.5 µM in the assay with RPMI-8226 leukemia; 33.7 µM in the assay with OVCAR-4 ovarian; 20.9 µM with SF-268 CNS; 7.12 µM with M14 melanoma; 8.73 µM in the assay with TK-10 renal. The TGI came to 1600 nM with UO-31 renal, 17.5 µM in the assay on ACHN renal, 15.2 µM in the assay on OVCAR-8 ovarian and 21.8 µM with MOLT-4 leukemia.

With `O=c1[nH]c2nccnc2c2c([N+](=O)[O-])cccc12`, the TGI was 73.4 µM in the assay on T-47D breast; greater than 100 µM in the assay with RPMI-8226 leukemia; greater than 100 µM in the assay with OVCAR-4 ovarian; greater than 100 µM in the assay on SF-268 CNS; greater than 100 µM in the assay on M14 melanoma; greater than 100 µM in the assay on TK-10 renal. For the same compound, the TGI was greater than 100000 nM in the assay with UO-31 renal, greater than 100 µM with ACHN renal, greater than 100 µM in the assay with OVCAR-8 ovarian and greater than 100 µM with MOLT-4 leukemia.
